According to patent EP0170926B1, “Eburnanecarboxylic acid derivatives having an amino group in position 9 or 11, the amino group eventually being substituted, process for their preparation, and medicaments containing these compounds” (priority 1984, dated 1986):
Converted amounts (≈) assume the structure as drawn. Counter-ions that a name gives are not always drawn. Like-named read-outs stand apart in the source and are kept apart here.

How the values were obtained:
[1] = Antihypoxic effect, investigations without described method; conditions: in vivo
[2] = system: nicht narkotisierter Mäuse; assay: Antihypoxic effect: normobaric hypoxia in non-anaesthetised mice; type: in vivo; conditions: for Überlebensdauer (min): 50 mg/kg intraperitoneal 30 min before test, 96 % nitrogen, 4 % oxygen, mean ± spread; for Überlebensdauer (%) Verlängerung: prolongation versus control
Source text: Die antihypoxische Wirkung wurde an nicht narkotisierten Mäusen in normobarer Hypoxie bestimmt. Fünf männliche Mäuse wurden in einen Glaszylinder von 3 Liter Volumen gesetzt, und in den Zylinder wurde ein aus 96 % Stickstoff und 4 % Sauerstoff bestehendes Gasgemisch eingeleitet. Gemessen wurde die Zeit zwischen dem Einbringen der Tiere in den Zylinder und ihrem Verenden. Diejenigen Tiere, die die unbehandelte Kontrolle um mehr als die doppelte Zeitspanne überlebten, können als erfolgreich behandelt gelten. Die zu untersuchenden Substanzen wurden je 10 Tieren in einer Dosis von 50 mg/kg Intraperitoneal 30 Minuten vor Versuchsbeginn verabreicht.

[3] = system: Kreislauf narkotisierter Hunde; assay: Vasodilating effect: blood flow in anaesthetised dogs (electromagnetic flow meter); type: in vivo; conditions: Canis lupus familiaris, 1 mg/kg intravenous, six dogs
Procedure: Die gefäßerweiternde Wirkung wurde an mit "Chloralose-Pentobarbital"-Gemisch narkotisierten Hunden untersucht. Die Durchblutung der Extremitäten wurde an der Arteria femoralis gemessen, über die Durchblutung des Gehirns ergaben Messungen an der Arteria carotis interna Aufschluß. Zu den Messungen wurden elektromagnetische Strömungsmesser verwendet. Die zu untersuchenden Substanzen wurden in einer Dosis von 1 mg/kg Körpergewicht sechs Hunden appliziert, und die in den gemessenen Parametern eintretenden Veränderungen wurden in Prozent umgerechnet. Als Referenzsubstanz diente der in der Medizin als gefäßerweiternde Substanz allgemein angewendete (+)-Apovincamlnsäureäthylester. Die Ergebnisse sind In der Tabelle I zusammengefaßt.

[4] = system: Tiere; assay: Antihypoxic effect: asphyxic anoxia; type: in vivo; conditions: po, 1 h; p.o., one hour before test; protected = survival 30 % longer than control; read-out: ED50 Asphyxische Anoxie
Procedure: Die antihypoxische Wirkung wurde ferner hoch an asphyxischer Anoxie (Caillard C. et al.: Life Sci. 16, 1607 /1975/) und an hypobarer Hypoxie (Baumel J. et al: Proc. Soc. Biol. N.Y. 132, 629 /1969/) gemessen. Dabei wurden die Tiere 16 Stunden lang ausgehungert, dann p.o. behandelt und eine Stunde später in gut schließende Glasgefäße von 100 ml Volumen gesetzt. Als Überiebenszeit wurde die Zeit vom Verschließen des Gefäßes bis zur letzten Atembewegung registriert. Als erfolgreich behandelt können diejenigen Tiere gelten, die eine um 30 % längere Zeit an Leben blieben als der Durchschnitt der Kontrollgruppe.

[5] = system: Tiere; assay: Antihypoxic effect: hypobaric hypoxia; type: in vivo; conditions: po, 1 h; p.o., one hour before test; 221 mbar; protected = survival 100 % longer than control; probit analysis; read-out: ED50 Hypobare Hypoxie
Source text: Die Wirkung auf die hypobare Hypoxie wurde an 16 Stunden lang ausgehungerten Tieren untersucht, die eine Stunde vor Versuchsbeginn p.o. mit den Verbindungen behandelt wurden. Die Tiere wurden In einen Vakuumexsikkator gesetzt, und der Druck wurde innerhalb von 20 Sekunden auf 221 mbar [170 Torr] gesenkt. Von diesem Zeitpunkt an wurde als Überlebensdauer die Zeit bis zur letzten Atembewegung gemessen. Als erfolgreich behandelt wurden diejenigen Tiere betrachtet, deren Überlebensdauer um 100 % länger war als die durchschnittliche Übedebensdauer der Kontrolle. Aus dem prozentualen Anteil der geschützten Tiere wurden mittels Probit-Analyse die ED50-Werte berechnet.

[6] = system: isolierten Meerschweinchenileum; assay: Spasmolytic activity: inhibition of barium chloride-induced contraction of isolated guinea pig ileum; design: species or system Meerschweinchen; conditions: Cavia porcellus
Source text: Die spasmolytische Aktivität der Verbindungen wurde am isolierten Meerschweinchendarm auf klassische Weise bestimmt (Magnus, R., Pflügers Arch., 102; 123/1904/). Als Referenzsubstanz wurden das bekannte Spasmolytikum Papaverin, ferner (+)-Apovincaminsäureäthylester verwendet. Die Ergebnisse sind in der Tabelle II zusammengefaßt.

[7] = Vasodilating effect, tests without described method; conditions: in vivo
[8] = in vivo; conditions: for TD50: po
Procedure: Messung der Muskelinkoordination (Rotarod) (H. Kwibara et al.: Japan J. Pharmacol. 27, 117 /1977/). Nach vorherigem Training wurden Tiere ausgewählt die im Stande sind, 120 Sekunden lang auf dem horizontalen Stab (Durchmesser 20 mm, Drehzahl 12 min^-1) oben zu bleiben. Als Muskelinkoordination wurde gewertet, wenn die Tiere innerhalb der Limitzeit herabfielen.

[9] = system: Mäusen; assay: Anticonvulsive effect: maximal electroshock in mice; type: in vivo; conditions: Mus musculus, po; 20 mA, 0,2 s, corneal electrode; read-out: ED50 max. Elektroschock
Source text: Der Schock wurde an 22 - 24 g schweren Tieren durch eine corneale Elektrode ausgelöst (20 mA, 0,2 s, HSE-Schockgerät Typ 207). Als geschützt wurden diejenigen Tiere betrachtet, bei denen durch die Behandlung die tonische Extension der hinteren Gliedmaßen ausblieb.

[10] = system: Mäusen; assay: Anticonvulsive effect: metrazole (pentylenetetrazole) convulsion in mice; type: in vivo; conditions: Mus musculus, po; 125 mg/kg pentylenetetrazole subcutaneous; read-out: ED50 Metrazolkrampf
Source text: Die Tiere erhielten nach der Vorbehandlung subkutan 125 mglkg Pentylentetrazol. Registriert wurde das Ausbleiben des persistierenden clonischen Krampfes und des tonischen Extensorkrampfes.

[11] = in vivo; design: species or system Mäuse; conditions: mouse, po
Source text: Muskelrelaxierende Wirkung (Traction).

[12] = blood flow of Arteria femoralis (extremities), read-out: A. femoralis (Veränderungen in Prozent)
[13] = blood flow of Arteria carotis interna (brain), read-out: A. carotis (Veränderungen in Prozent)
[14] = inhibition of barium chloride-induced contraction, read-out: ED50 (the source's name)

In the case of `CCC12C=C(C(=O)OC)n3c4c(c5c([N+](=O)[O-])cccc53)CCN(CCC1)C42` (centres unmarked) [9-Nitro-apovincamin], the “antihypoxische Wirkung” value [1] is reported as “keine antihypoxische Wirkung”.

In the case of `CCOC(=O)C1=C[C@]2(CC)CCCN3CCc4c(n1c1cccc(N)c41)[C@@H]32` [Beispiel 6, 9-(Amino)-apovincaminsäureäthylesterhydrochlorid], the “Überlebensdauer (min)” value [2] is reported as 7,3 ± 2,31 min, the “Schutz (%)” value ([2]; 50 mg/kg intraperitoneal, animals surviving more than twice the control time) is reported as 10% and the “Überlebensdauer (%) Verlängerung” value ([2]; 50 mg/kg intraperitoneal) is reported as 22%.

`CCOC(=O)C1=C[C@]2(CC)CCCN3CCc4c(n1c1cc(NC(=O)c5cccs5)ccc41)[C@@H]32` [Beispiel 37, 11-(Thien-2'-ylcarbonylamino)-apovincaminsäureäthylesterhydrochlorid] showed a change in vivo at 1 mg/kg [3, 12] of 0%.

`CCOC(=O)C1=C[C@]2(CC)CCCN3CCc4c(n1c1cccc(NC(C)=O)c41)[C@@H]32` [Beispiel 40, 9-(Acetamido)-apovincaminsäureäthylesterhydrochlorid] showed a change in vivo at 1 mg/kg [3, 13] of 0%.

In the case of `CC[C@@]12C=C(C(=O)OCC(C)C)n3c4c(c5ccc(NC(C)=O)cc53)CCN(CCC1)[C@H]42` [Beispiel 39, 11-(Acetamido)-apovincaminsäureisobutylesterhydrochlorid], the change in vivo at 1 mg/kg [3, 12] is reported as 0%.

Compound `CC[C@@]12C=C(C(=O)OC)n3c4c(c5ccc(NC(=O)c6ccc([N+](=O)[O-])cc6)cc53)CCN(CCC1)[C@H]42` [Beispiel 9, 11-[4'-(Nitro)-benzoylamino]-apovincamin] has an ED50 [4] of 40.9 mg/kg and an ED50 [5] of 42.1 mg/kg.

In the case of `CC[C@@]12C=C(C(=O)OC)n3c4c(c5ccc(NC(C)=O)cc53)CCN(CCC1)[C@H]42` [Beispiel 21, 11-(Acetamido)-apovincamin], the change in vivo at 1 mg/kg [3, 12] is reported as 0%.

Compound `CC[C@@]12C=C(C(=O)OC)n3c4c(c5ccc(NC(=O)c6ccccc6F)cc53)CCN(CCC1)[C@H]42` [Beispiel 26, 11-[2'-(Fluor)-benzoylamino]-apovincamin] has an IC50 [6, 14] of 4 µg/mL (≈ 8.45 µM).

For `CCC12CCCN3CCc4c(n(c5cccc([N+](=O)[O-])c45)C(O)(C(=O)OC)C1)C32` (centres unmarked) [9-Nitro-vincamin], the “gefäßerweiternde Wirkung” value [7] was “keine gefäßerweiternde Wirkung”.

In the case of `CC[C@]12CCCN3CCc4c(n(c5ccccc45)[C@@](O)(C(=O)OC)C1)[C@@H]32` [Vincamin], the “Überlebensdauer (min)” value [2] is reported as 6,1 ± 1,30 min and the “Überlebensdauer (%) Verlängerung” value ([2]; 50 mg/kg intraperitoneal) is reported as 2%.

For `CCC1(c2ccccc2)NC(=O)N(C)C1=O` (centres unmarked) [Mephenitoin, reference compound], the ED50 [4] was > 80 mg/kg, the selectivity ratio ([8]; mouse) was 3 to 6 and the TD50 [8] was 78.6 mg/kg. It also gave an ED50 [9] of 26.3 mg/kg, an ED50 [10] of 24.5 mg/kg and a TD50 [11] of 154 mg/kg. The ED50 [5] was > 80 mg/kg.

With `CCOC(=O)C1=C[C@]2(CC)CCCN3CCc4c(n1c1cc(NC(=O)c5ccccc5)ccc41)[C@@H]32` [Beispiel 38, 11-(Benzoylamino)-apovincaminsäureäthylesterhydrochlorid] the change in vivo at 1 mg/kg [3, 12] was 0%, the TD50 [8] was > 180 mg/kg and the ED50 [9] was 16.7 mg/kg. For the same compound, the ED50 [10] was 9.7 mg/kg and the TD50 [11] was > 180 mg/kg.

`CCOC(=O)C1=C[C@]2(CC)CCCN3CCc4c(n1c1cccc(NS(C)(=O)=O)c41)[C@@H]32` [Beispiel 7, 9-(Methylsulfonylamino)-apovincaminsäureäthylesterhydrochlorid] showed a change in vivo at 1 mg/kg [3, 13] of 0%.

With `CCOC(=O)C1=C[C@]2(CC)CCCN3CCc4c(n1c1ccccc41)[C@@H]32` [Apovincaminsäureäthylester, reference compound] the IC50 [6, 14] was 2 µg/mL (≈ 5.71 µM), the ED50 [4] was > 50 mg/kg and the “Überlebensdauer (min)” value [2] was 6,4 ± 1,58 min. The “Überlebensdauer (%) Verlängerung” value ([2]; 50 mg/kg intraperitoneal) was 7% and the ED50 [5] was > 50 mg/kg.

For `CC[C@@]12C=C(C(=O)OC)n3c4c(c5ccc(NC(=O)c6ccccc6)cc53)CCN(CCC1)[C@H]42` [Beispiel 28, 11-(Benzoylamino)-apovincamin], the IC50 [6, 14] was 2.5 µg/mL (≈ 5.49 µM), the ED50 [4] was 25 mg/kg and the ED50 [9] was 16 mg/kg. For the same compound, the ED50 [10] was 15.9 mg/kg and the ED50 [5] was > 50 mg/kg.

Compound `COc1ccc(Cc2nccc3cc(OC)c(OC)cc23)cc1OC` [Papaverin, reference compound] has an IC50 ([6]; read-out: ED50) of 5.4 µg/mL (≈ 15.9 µM).
